Measured values published in patent US20130345215A1, “PYRAZOLOPYRIMIDONE AND PYRAZOLOPYRIDONE INHIBITORS OF TANKYRASE” (Genentech, Inc., priority 2012, published 2013).

System: Wnt stimulated TCF transcriptional activity, HEK293-TS 112 TCF reporter cell line
Test: Tankyrase 1 Assay (Example 119): Wnt3A-stimulated TOPbrite TCF luciferase reporter
Type: cell-based
Details: Compounds I-59 to I-144, procedure in Example 119 (0.5 ug/mL Wnt3A, 16 hours); read-out: TNKS1 (IC50)
Method: Inhibition of the Wnt stimulated TCF transcriptional activity by tankyrase inhibitors was determined utilizing a HEK293-TS 112 TCF reporter cell line. A Wnt-responsive luciferase reporter named TOPbrite was constructed by cloning the enhancer element of Super8xTOPFlash containing eight TCF/LEF binding sites into the pGL4.28 vector (Promega) upstream of the minimal promoter element, and selecting for hygromycin B resistance (50 μg/ml). Cells were seeded into 384-well plates in the presence of 0.5 ug/mL of Wnt3A at a density of 20,000 cells per well in 25 ul of F:12 DMEM media supplemented with 10% FBS and 2 mM Glutamax. Cells seeded without the addition of Wnt3A were used as background signal. Compounds of various concentrations were added to cells and incubated at 37 degrees with 5% CO2 for 16 hours. The assay was terminated with the addition of Promega Dual Glo kit per manufacturer's instructions. A ratio of TOPbrite Firefly Luciferase and SV40 Renillla Luciferase was calculated and the background from the neutral wells was subtracted yielding the final normalized measurement of TCF transcriptional activity. Compound IC50s were determined by four-parameter curve fitting using GeneData software.

Molecule | IC50 [nM]
Cn1ncc2c(=O)[nH]c(N3CCC(C(=O)N4CCCC4)CC3)nc21 [Compound I-129, 1-methyl-6-[4-(pyrrolidine-1-carbonyl)-1-piperidyl)-5H-pyrazolo[3 4-d]pyrimidin-4-one] | 274
Cn1ncc2c(=O)[nH]c(-c3ccc(S(=O)(=O)C4CCCCC4)cc3)nc21 [Compound I-125, 6-(4-cyclohexylsulfonylphenyl)-1-methyl-5H-pyrazolo[3 4-d]pyrimidin-4-one] | 178
Cn1ncc2c(=O)[nH]c(N3CCN(C4CCOCC4)CC3)nc21 [Compound I-130, 1-methyl-6-(4-tetrahydropyran-4-ylpiperazin-1-yl)-5H-pyrazolo[3 4-d]pyrimidin-4-one] | 315
CC(O)c1cc(F)c(N2CCN(c3nc4c(cnn4C)c(=O)[nH]3)CC2)c(F)c1 (stereo not drawn) [Compound I-69, 6-[4-[2 6-difluoro-4-(1-hydroxyethyl)phenyl]piperazin-1-yl]-1-methyl-5H-pyrazolo[3 4-d]pyrimidin-4-one] | 7.8
Cn1ncc2c(=O)[nH]c(N3CCN(c4c(F)cc(OC5CCOCC5)cc4F)CC3)nc21 [Compound I-76, 6-[4-(2 6-difluoro-4-tetrahydropyran-4-yloxy-phenyl)piperazin-1-yl]-1-methyl-5H-pyrazolo[3 4-d]pyrimidin-4-one] | 11.1
Cn1ncc2c(=O)[nH]c(N3CCN(C4CC5CCC4C5)CC3)nc21 (stereo not drawn) [Compound I-103, 1-methyl-6-(4-norbornan-2-ylpiperazin-1-yl)-5H-pyrazolo[3 4-d]pyrimidin-4-one] | 50.2
Cn1ncc2c(=O)[nH]c(N3CCN(c4c(F)cc(CN5CCOCC5)cc4F)CC3)nc21 [Compound I-67, 6-[4-[2 6-difluoro-4-(morpholinomethyl)phenyl]piperazin-1-yl]-1-methyl-5H-pyrazolo[3 4-d]pyrimidin-4-one] | 6.9
C[C@H](N)C(=O)OCCOc1cc(F)c(N2CCN(c3nc4c(cnn4C)c(=O)[nH]3)CC2)c(F)c1 [Compound I-59, 2-[3 5-difluoro-4-[4-(1-methyl-4-oxo-5H-pyrazolo[3 4-d]pyrimidin-6-yl)piperazin-1-yl]phenoxy]ethyl (2S)-2-aminopropanoate] | 3.7
Cn1ncc2c(=O)[nH]c(-c3ccc(S(=O)(=O)CC4CCCCC4)cc3)nc21 [Compound I-108, 6-[4-(cyclohexylmethylsulfonyl)phenyl]-1-methyl-5H-pyrazolo[3 4-d]pyrimidin-4-one] | 68.4
Cn1ncc2c(=O)[nH]c(N3CCC(c4[nH]ncc4S(C)(=O)=O)CC3)nc21 [Compound I-81, 1-methyl-6-[4-(4-methylsulfonyl-1H-pyrazol-5-yl)-1-piperidyl]-5H-pyrazolo[3 4-d]pyrimidin-4-one] | 14.3
6-[4-(2-fluorophenyl)-1- piperidyl]-1-methyl-5H- pyrazolo[3 4-d]pyrimidin- 4-one [Compound I-88] | 19.3
COCCOc1cc(F)c(N2CCN(c3nc4c(cnn4CCCO)c(=O)[nH]3)CC2)c(F)c1 [Compound I-95, 6-[4-[2 6-difluoro-4-(2-methoxyethoxy)phenyl]piperazin-1-yl]-1-(3-hydroxypropyl)-5H-pyrazolo[3 4-d]pyrimidin-4-one] | 27
COCCOc1cc(F)c(N2CCN(c3nc4[nH]ncc4c(=O)[nH]3)CC2)c(F)c1 [Compound I-77, 6-[4-[2 6-difluoro-4-(2-methoxyethoxy)phenyl]piperazin-1-yl]-1 5-dihydropyrazolo[3 4-d]pyrimidin-4-one] | 11.8
Cn1ncc2c(=O)[nH]c(N3CCN([C@H]4CC[C@H](O)CC4)CC3)nc21 [Compound I-120, 6-[4-(4-hydroxycyclohexyl)piperazin-1-yl]-1-methyl-5H-pyrazolo[3 4-d]pyrimidin-4-one] | 153
Cn1ncc2c(=O)[nH]c(N3CCN(c4c(F)cc(CO)cc4F)CC3)nc21 [Compound I-79, 6-[4-[2 6-difluoro-4-(hydroxymethyl)phenyl]piperazin-1-yl]-1-methyl-5H-pyrazolo[3 4-d]pyrimidin-4-one] | 13.3
Cn1ncc2c(=O)[nH]c(N3CCN(CC4CCOCC4)CC3)nc21 [Compound I-116, 1-methyl-6-[4-(tetrahydropyran-4-ylmethyl)piperazin-1-yl]-5H-pyrazolo[3 4-d]pyrimidin-4-one] | 112
CCCn1ccc(C2(C)CCN(c3nc4c(cnn4C)c(=O)[nH]3)CC2)n1 [Compound I-98, 1-methyl-6-[4-methyl-4-(1-propylpyrazol-3-yl)-1-piperidyl]-5H-pyrazolo[3 4-d]pyrimidin-4-one] | 37.4
Cn1ncc2c(=O)[nH]c(N3CCC(C)(c4ccn(CCO)n4)CC3)nc21 [Compound I-89, 6-[4-[1-(2-hydroxyethyl)pyrazol-3-yl]-4-methyl-1-piperidyl]-1-methyl-5H-pyrazolo[3 4-d]pyrimidin-4-one] | 21.8
Cn1ncc2c(=O)[nH]c(N3CCC(C)(c4cc[nH]n4)CC3)nc21 [Compound I-82, 1-methyl-6-[4-methyl-4-(1H-pyrazol-3-yl)-1-piperidyl]-5H-pyrazolo[3 4-d]pyrimidin-4-one] | 15.1
COC(C)c1cc(F)c(N2CCN(c3nc4c(cnn4C)c(=O)[nH]3)CC2)c(F)c1 (stereo not drawn) [Compound I-71, 6-[4-[2 6-difluoro-4-(1-methoxyethyl)phenyl]piperazin-1-yl]-1-methyl-5H-pyrazolo[3 4-d]pyrimidin-4-one] | 8.3
COCCOc1cc(F)c(N2CCN(c3nc4c(cnn4CC(O)CO)c(=O)[nH]3)CC2)c(F)c1 (stereo not drawn) [Compound I-113, 6-[4-[2 6-difluoro-4-(2-methoxyethoxy)phenyl]piperazin-1-yl]-1-(2 3-dihydroxypropyl)-5H-pyrazolo[3 4-d]pyrimidin-4-one] | 90
Cn1ncc2c(=O)[nH]c(N3CCN(c4c(F)cc(OCCN5CCOCC5)cc4F)CC3)nc21 [Compound I-74, 6-[4-[2 6-difluoro-4-(2-morpholinoethoxy)phenyl]piperazin-1-yl]-1-methyl-5H-pyrazolo[3 4-d]pyrimidin-4-one] | 8.9
6-[4-(3-fluorophenyl)-1- piperidyl]-1-methyl-5H- pyrazolo[3 4-d]pyrimidin- 4-one [Compound I-84] | 17
COCCOc1cc(F)c(N2CCN(c3nc4c(cnn4CCO)c(=O)[nH]3)CC2)c(F)c1 [Compound I-94, 6-[4-[2 6-difluoro-4-(2-methoxyethoxy)phenyl]piperazin-1-yl]-1-(2-hydroxyethyl)-5H-pyrazolo[3 4-d]pyrimidin-4-one] | 264
CC(O)Cn1ccc(C2(C)CCN(c3nc4c(cnn4C)c(=O)[nH]3)CC2)n1 (stereo not drawn) [Compound I-99, 6-[4-[1-(2-hydroxypropyl)pyrazol-3-yl]-4-methyl-1-piperidyl]-1-methyl-5H-pyrazolo[3 4-d]pyrimidin-4-one] | 41.9
COCCO[C@H]1CC[C@@H](N2CCN(c3nc4c(cnn4C)c(=O)[nH]3)CC2)CC1 [Compound I-136, 6-[4-[4-(2-methoxyethoxy)cyclohexyl]piperazin-1-yl]-1-methyl-5H-pyrazolo[3 4-d]pyrimidin-4-one] | 468
Cn1ncc2c(=O)[nH]c(N3CCN(c4c(F)cc(OCCO)cc4F)CC3)nc21 [Compound I-78, 6-[4-[2 6-difluoro-4-(2-hydroxyethoxy)phenyl]piperazin-1-yl]-1-methyl-5H-pyrazolo[3 4-d]pyrimidin-4-one] | 12
